Key:
HCV Subgenomic Replicon = assay: HCV-Huh-5-2 replicon cell assay (luciferase); type: cell-based, Hepatitis C virus; conditions: HCV subgenomic replicon in Huh-5-2 cells, 72 hours, luciferase; read-out: EC50 (concentration required to inhibit luciferase activity in the replicon system by 50%)
Protocol: (§1) Huh-5-2 cells [a cell line with a persistent HCV replicon I3891uc-ubi-neo/NS3-3′/5.1; replicon with firefly luciferase-ubiquitin-neomycin phosphotransferase fusion protein and EMCV-IRES driven NS3-5B HCV polyprotein] was cultured in RPMI medium (Gibco) supplemented with 10% fetal calf serum, 2 mM L-glutamine (Life Technologies), 1× non-essential amino acids (Life Technologies); 100 IU/ml penicillin and 100 ug/ml streptomycin and 250 ug/ml G418 (Geneticin, Life Technologies). Cells were seeded at a densitiy of 7000 cells per well in 96 well View Plate™ (Packard) in medium containing the same components as described above, except for G418. Cells were allowed to adhere and proliferate for 24 hr. At that time, culture medium was removed and serial dilutions of the test compounds were added in culture medium lacking G418. Interferon alfa 2a (500 IU) was included as a positive control. Plates were further incubated at 37° C. and 5% CO2 for 72 hours. Replication of the HCV replicon in Huh-5 cells results in luciferase activity in the cells. Luciferase activity is measured by adding 50 μl of 1× Glo-lysis buffer (Promega) for 15 minutes followed by 50 ul of the Steady-Glo Luciferase assay reagent (Promega). Luciferase activity is measured with a luminometer and the signal in each individual well is expressed as a percentage of the untreated cultures. Parallel cultures of Huh-5-2 cells, seeded at a density of 7000 cells/well of classical 96-well cell culture plates (Becton-Dickinson) are treated in a similar fashion except that no Glo-lysis buffer or Steady-Glo Luciferase reagent is added. Instead the density of the culture is measured by means of the MTS method (Promega).

Huh-5-2 cells = assay: Cytostatic effect on Huh-5-2 cells (MTS method, parallel cultures); type: cell-based; conditions: 72 hours, read-out: CC50 (concentration required to inhibit the proliferation of exponentially growing Huh-5-2 cells by 50%)
Protocol: as §1

CC(=O)OCC1OC(n2c(SCc3cc4cc(Br)ccc4oc3=O)nc3cc(Cl)c(Cl)cc32)C(OC(C)=O)C(OC(C)=O)C1OC(C)=O (centres unmarked) [Compound 7g, Acetic acid 3,5-diacetoxy-2-acctoxymethyl-6-[2-(6-bromo-2-oxo-2H-chromen-3-ylmethylsulfanyl)-5,6-dichloro-benzoimidazol-1-yl]-tetrahydro-pyran-4-yl ester]
EC50 (HCV Subgenomic Replicon): 4.08 µM
CC50 (Huh-5-2 cells): > 64.8 µM

From US20090197910A1, “NOVEL VIRAL REPLICATION INHIBITORS” (KATHOLIEKE UNIVERSITEIT LEUVEN, priority 2006, published 2009)
